Here are results for two compounds from paper PMC6531917, “A Cell-Permeant Mimetic of NMN Activates SARM1 to Produce Cyclic ADP-Ribose and Induce Non-apoptotic Cell Death” (iScience, 2019).

Molecules are shown by their SMILES.

Assay [1] deals with T1, CD38 (Homo sapiens, UniProt P28907).
T1 construct: recombinant CD38 (reCD38)
T1 sequence (P28907 1-300): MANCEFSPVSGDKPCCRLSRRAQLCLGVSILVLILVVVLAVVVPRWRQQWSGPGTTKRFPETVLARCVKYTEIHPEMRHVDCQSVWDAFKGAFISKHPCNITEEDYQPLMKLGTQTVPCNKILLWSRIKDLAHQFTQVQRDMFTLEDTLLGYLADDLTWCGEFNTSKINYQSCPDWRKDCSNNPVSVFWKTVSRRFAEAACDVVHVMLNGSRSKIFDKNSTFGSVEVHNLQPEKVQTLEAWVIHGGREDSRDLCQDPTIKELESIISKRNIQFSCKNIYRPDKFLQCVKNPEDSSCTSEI
Put plainly: inhibition of recombinant CD38 enzyme activity (Figure S5H). Type of assay: biochemical.

Assay [2] deals with SARM1 (Homo sapiens, UniProt Q6SZW1). As to the kind of experiment: biochemical.
The target of assay [3] is T1, CD38. Put plainly: inhibition of recombinant CD38 enzyme activity (Figure S5H). It is filed as biochemical. This is another data set of the same source.
In assay [4] the target is T2, SARM1 (Homo sapiens, UniProt Q6SZW1).
T2 construct: SARM1-FLAG, immunoprecipitated; SARM1-dN (N-terminal mitochondria localization signal truncated)
T2 sequence (Q6SZW1 28-724): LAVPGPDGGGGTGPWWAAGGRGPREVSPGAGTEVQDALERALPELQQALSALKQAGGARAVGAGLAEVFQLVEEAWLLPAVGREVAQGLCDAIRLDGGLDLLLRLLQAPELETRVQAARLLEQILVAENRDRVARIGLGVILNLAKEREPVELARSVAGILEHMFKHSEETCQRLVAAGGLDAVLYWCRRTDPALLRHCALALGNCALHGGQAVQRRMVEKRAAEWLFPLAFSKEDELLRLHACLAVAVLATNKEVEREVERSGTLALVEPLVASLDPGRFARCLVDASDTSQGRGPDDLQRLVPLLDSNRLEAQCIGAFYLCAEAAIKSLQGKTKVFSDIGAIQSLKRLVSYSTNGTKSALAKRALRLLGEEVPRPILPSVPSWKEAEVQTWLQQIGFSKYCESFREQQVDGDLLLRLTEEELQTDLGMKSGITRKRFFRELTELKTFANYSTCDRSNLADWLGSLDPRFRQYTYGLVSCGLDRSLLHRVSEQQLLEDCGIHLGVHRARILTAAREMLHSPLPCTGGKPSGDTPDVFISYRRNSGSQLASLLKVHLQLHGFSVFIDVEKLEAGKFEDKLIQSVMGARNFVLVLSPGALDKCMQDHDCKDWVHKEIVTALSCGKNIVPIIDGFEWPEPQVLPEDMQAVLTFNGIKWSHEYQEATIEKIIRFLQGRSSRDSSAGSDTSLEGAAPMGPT
Put plainly: εNAD NADase assay and HPLC activity assays of immunopurified SARM1 (activation); dose-response in lysate. It is filed as biochemical.

For `NC(=O)c1ccc[n+]([C@@H]2O[C@H](COP(O)(O)=S)[C@@H](O)[C@@H]2F)c1` [CZ-48], the IC50 – broadly, the concentration needed to halve the response being measured – on CD38 [1] is around 10 µM. The EC50 (usually the concentration that produces a half-maximal response) on SARM1 [2] was around 50 µM.
As for `NC(=O)c1ccc[n+]([C@@H]2O[C@H](COP(=O)(O)O)[C@@H](O)[C@H]2O)c1` [NMN], the “inhibition of recombinant CD38 enzyme activity (Figure S5H)” value on CD38 [3] was “In contrast to SARM1, recombinant CD38 (reCD38) was inhibited by both NMN (Figure S5H) and CZ-48”. The EC50 on SARM1 [4] was around 50 µM.
